Source: patent publication EP2970215B1, “PYRROLIDINE DERIVATIVES, PHARMACEUTICAL COMPOSITIONS CONTAINING THEM, AND THEIR USE IN THERAPY” (AbbVie Deutschland GmbH & Co. KG, priority 2013, dated 2014)

biological target: T1, human GlyT1c transporter (Homo sapiens, UniProt P48067); test: Radioligand binding assay using recombinant CHO cell membranes expressing human GlyT1; details: radioligand binding to human GlyT1c transporter-expressing membranes
T1 construct: expressed in transfected cells; host or cells: CHO cells (recombinant; line hGlyT1c_5_CHO is named for the uptake assay)
T1 sequence (P48067 1-706): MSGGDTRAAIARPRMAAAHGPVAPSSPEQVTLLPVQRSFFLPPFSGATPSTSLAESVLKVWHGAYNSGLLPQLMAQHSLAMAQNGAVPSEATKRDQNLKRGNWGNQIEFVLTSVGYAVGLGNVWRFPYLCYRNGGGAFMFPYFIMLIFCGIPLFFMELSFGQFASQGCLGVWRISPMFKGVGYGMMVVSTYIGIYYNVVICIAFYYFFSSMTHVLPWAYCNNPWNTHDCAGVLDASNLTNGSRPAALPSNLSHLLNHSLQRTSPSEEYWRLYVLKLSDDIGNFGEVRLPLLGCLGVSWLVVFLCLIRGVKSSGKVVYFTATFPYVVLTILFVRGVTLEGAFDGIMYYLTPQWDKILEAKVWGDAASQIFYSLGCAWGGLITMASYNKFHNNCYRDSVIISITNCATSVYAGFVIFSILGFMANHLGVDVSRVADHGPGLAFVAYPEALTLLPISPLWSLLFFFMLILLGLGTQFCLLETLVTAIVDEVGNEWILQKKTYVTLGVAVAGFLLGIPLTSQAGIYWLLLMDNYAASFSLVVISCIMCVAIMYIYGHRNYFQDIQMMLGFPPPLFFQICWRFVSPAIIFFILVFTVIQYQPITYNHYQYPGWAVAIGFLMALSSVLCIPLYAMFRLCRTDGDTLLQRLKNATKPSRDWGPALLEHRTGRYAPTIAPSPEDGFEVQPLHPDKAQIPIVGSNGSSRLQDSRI
Text: 2. Radioligand binding assays using recombinant CHO cell membranes expressing human GlyT1: […]

Row | Ki [µM] | SMILES
1 | ≤ 10 | Cn1cnc(S(=O)(=O)N2C[C@@H](Nc3ccncc3)[C@H](c3ccc(F)cc3)C2)c1 (relative stereo) [Example 177, N-{trans-4-(4-fluorophenyl)-1-[(1-methyl-1H-imidazol-4-yl)sulfonyl]pyrrolidin-3-yl}pyridin-4-amine]
2 | ≤ 1 | Cn1cnc(S(=O)(=O)N2C[C@@H](Nc3ccccn3)[C@H](c3ccc(F)cc3)C2)c1 (relative stereo) [Example 178, N-{trans-4-(4-fluorophenyl)-1-[(1-methyl-1H-imidazol-4-yl)sulfonyl]pyrrolidin-3-yl}pyridin-2-amine]
3 | ≤ 10 | Cn1cnc(S(=O)(=O)N2C[C@@H](Nc3cccnc3)[C@H](c3ccc(F)cc3)C2)c1 (relative stereo) [Example 179, N-{trans-4-(4-fluorophenyl)-1-[(1-methyl-1H-imidazol-4-yl)sulfonyl]pyrrolidin-3-yl}pyridin-3-amine]
4 | ≤ 10 | Cn1cnc(S(=O)(=O)N2C[C@@H](Nc3ccccc3)[C@H](c3cccc(F)c3)C2)c1 (relative stereo) [Example 185, trans-4-(3-fluorophenyl)-1-[(1-methyl-1H-imidazol-4-yl)sulfonyl]-N-phenylpyrrolidin-3-amine]
5 | ≤ 1 | Cn1cnc(S(=O)(=O)N2C[C@@H](Nc3cccc(F)c3)[C@H](c3cccc(F)c3)C2)c1 (relative stereo) [Example 186, trans-N,4-bis(3-fluorophenyl)-1-[(1-methyl-1H-imidazol-4-yl)sulfonyl]pyrrolidin-3-amine]
6 | ≤ 10 | Cn1cnc(S(=O)(=O)N2C[C@@H](Nc3ccc(F)cc3)[C@H](c3cccc(F)c3)C2)c1 (relative stereo) [Example 187, trans-4-(3-fluorophenyl)-N-(4-fluorophenyl)-1-[(1-methyl-1H-imidazol-4-yl)sulfonyl]pyrrolidin-3-amine]
7 | ≤ 0.1 | Cn1cnc(S(=O)(=O)N2C[C@@H](Nc3cccc(Cl)c3)[C@H](c3cccc(F)c3)C2)c1 (relative stereo) [Example 188, trans-N-(3-chlorophenyl)-4-(3-fluorophenyl)-1-[(1-methyl-1H-imidazol-4-yl)sulfonyl]pyrrolidin-3-amine]
8 | ≤ 0.1 | Cn1cnc(S(=O)(=O)N2C[C@@H](Nc3cccc(C(F)(F)F)c3)[C@H](c3cccc(F)c3)C2)c1 (relative stereo) [Example 189, trans-4-(3-fluorophenyl)-1-[(1-methyl-1H-imidazol-4-yl)sulfonyl]-N-[3-(trifluoromethyl)phenyl]pyrrolidin-3-amine]
9 | ≤ 1 | Cn1cnc(S(=O)(=O)N2C[C@@H](Nc3ccc(C(F)(F)F)cc3)[C@H](c3cccc(F)c3)C2)c1 (relative stereo) [Example 190, trans-4-(3-fluorophenyl)-1-[(1-methyl-1H-imidazol-4-yl)sulfonyl] -N-[4-(trifluoromethyl)phenyl]pyrrolidin-3-amine]
10 | ≤ 10 | Cn1cnc(S(=O)(=O)N2C[C@@H](Nc3ccncc3)[C@H](c3cccc(F)c3)C2)c1 (relative stereo) [Example 191, N-{trans-4-(3-fluorophenyl)-1-[(1-methyl-1H-imidazol-4-yl)sulfonyl]pyrrolidin-3-yl}pyridin-4-amine]

Row | SMILES | Ki [µM]
11 | Cn1cnc(S(=O)(=O)N2C[C@@H](Nc3cccc(C(F)(F)F)n3)[C@H](c3ccc(F)cc3)C2)c1 (relative stereo) [Example 180, N-{trans-4-(4-fluorophenyl)-1-[(1-methyl-1H-imidazol-4-yl)sulfonyl]pyrrolidin-3-yl}-6-(trifluoromethyl)pyridin-2-amine] | ≤ 1
12 | Cn1cnc(S(=O)(=O)N2C[C@H](c3ccccc3)[C@H](Nc3ccccc3)C2)c1 (relative stereo) [Example 184, (cis)-1-[(1-methyl-1H-imidazol-4-yl)sulfonyl]-N,4-diphenylpyrrolidin-3-amine] | ≤ 10
